Each structure is given as a SMILES string.

In this assay the test system is Plasmodium falciparum. The experiment in a line: GSK_TCMDC: Inhibition of Plasmodium falciparum 3D7 in whole erythrocytes, using parasite LDH activity as an index of growth. Type of assay: functional, organism-based. To be noted: Plasmodium falciparum, 3D7.
Regarding `CCN1CCC(N(Cc2ccc(-c3ccc(C(F)(F)F)cc3)cc2)C(=O)Cn2c(CCc3cccc(F)c3F)cc(=O)c3ccccc32)C1` (stereo unspecified), the XC50 turned out to be 1010 nM.
`COc1ccc2ncc(F)c([C@@H](O)CN3CCC(NCc4cc(C#N)c5c(c4)CCO5)CC3)c2n1`: the XC50 turned out to be 889 nM.
Under `Cc1c(Cc2ccccc2Br)cnc2nc(N)nc(N)c12` stands 4.62 nM; under `O=C(/C=C/c1ccc(Cl)c(Cl)c1)NCCCCCN1CCC(NC(=O)Nc2ccc(Cl)c(C(F)(F)F)c2)CC1`, 650 nM; under `Cc1ccc(CNC(=O)[C@H](Cc2ccccc2)Nc2cc(C)nc(NCc3ccccc3C)n2)cc1`, 803 nM.
Under `CN(C)/C(=N/C(=N)NCc1ccc(Cl)c(Cl)c1)NCCCCCCN/C(=N\C(=N)NCc1ccc(Cl)c(Cl)c1)N(C)C` stands 304 nM.
With `CCN(CC)CCNc1c2ccc(Cl)cc2nc2ccc(OC)nc12`, the XC50 stood at 736 nM.
`C[C@H](NC(=O)[C@H](Cc1ccccc1)NC(=O)OC(C)(C)C)C(=O)N[C@@H](CC1CCCCC1)C(O)CN` (stereo partly specified) gave an XC50 of 733 nM.
Then `CCCC(=O)Nc1ccc(OCCCN(Cc2ccccc2C(F)(F)F)c2ccc(C#N)c(C(F)(F)F)c2)cc1`, with 926 nM; and `CCN(CC)/C(=N/C(=N)NCc1ccc(Cl)cc1Cl)NCCCCCCN/C(=N\C(=N)NCc1ccc(Cl)cc1Cl)N(CC)CC`, with 218 nM; and `O=C(c1ccc(Cl)c(Cl)c1)N1CCc2c([nH]c3ccccc23)C1CN1CCCC1` (stereo unspecified), with 825 nM.
Turning to `Cc1cc(Nc2ccc(O)cc2)nc2cccc(O)c12`, the XC50 is 742 nM.
The molecule `COc1ccc(CCNCCCCCCNCCc2ccc(Cl)c3ccccc23)cc1OC` yielded an XC50 of 580 nM.
Under `Nc1nc(N)c2cc(NC(=O)c3ccc(Cl)c(Cl)c3)ccc2n1` stands 146 nM; under `SC(=Nc1ccc(Cl)c(Cl)c1)NN=Cc1ccccn1`, 768 nM; under `COc1ccc(CC(=O)NC(CCN2CCC3(CCc4ccccc43)CC2)c2ccc(Cl)c(Cl)c2)cc1` (stereo unspecified), 525 nM.
Then `COc1ccc2ncc(Cl)c(CCN3CC[C@@H](CNCc4cc5c(cn4)OCS5)C3)c2n1`, with 811 nM; and `Cc1ccc(C)c(S(=O)(=O)NCC2CCN(Cc3ccc(O)cc3)CC2)c1`, with 978 nM; and `O=C(NC(NC(=S)Nc1ccc([N+](=O)[O-])cc1)C(Cl)(Cl)Cl)c1cccc(Cl)c1` (stereo unspecified), with 731 nM.
`COc1cc(CNC[C@@H](O)[C@H](Cc2ccccc2)NC(=O)c2cc(C3CCCC3)cc(N3CCCS3(=O)=O)c2)cc(OC)c1`: the XC50 is 1240 nM.
`CC(CCCCC(=O)Nc1ccc(CC(C)NCCc2cccc(Cl)c2)cc1)NCCc1cccc(Cl)c1` (stereo unspecified) gave an XC50 of 1010 nM.
Under `COc1ccc2c(c1)Nc1ccc(Cl)cc1C2N` (stereo unspecified) stands 303 nM; under `CC1(CCCCN2CC=C(c3c[nH]c4ccccc34)CC2)C(=O)Nc2ccccc21` (stereo unspecified), 138 nM.
Under `CC(=O)N(Cc1nc(-c2cc(Cl)c(Cl)s2)cs1)c1c(C)cccc1C` stands 333 nM; under `FC(F)(F)Oc1ccc(Nc2cc(-c3ccncc3)nc(-c3cccnc3)n2)cc1`, 672 nM; under `O=C(Nc1cccc(-c2nn3ccccc3c2-c2ccnc(Nc3ccccc3)n2)c1)c1c(F)cccc1F`, 715 nM.
Under `CC(C)C[C@H](NC(=O)c1cc2ccccc2s1)C(=O)N[C@H]1CCN(Cc2ccc(I)c(OC3CCN(C)C3)c2)C1` (stereo partly specified) stands 920 nM; under `c1ccc2c(NCCCCCCNc3c4c(nc5ccccc35)CCCC4)c3c(nc2c1)CCCC3`, 196 nM; under `Cc1cc(NCc2ccccc2)nc2cc(O)ccc12`, 784 nM.
`C=CCOC(=O)N1CCC(CNCc2ccc(-c3cccc(-c4nc5cccc(C)c5[nH]4)c3)cc2)C1` (stereo unspecified) showed an XC50 of 118 nM.
Under `O=C(NCC1Cc2cc(Oc3ccccc3)ccc2O1)c1ccc([N+](=O)[O-])o1` (stereo unspecified) stands 917 nM; under `CCN1CCN(CCCNc2ccnc3cc(Cl)ccc23)CC1`, 67 nM.
Then `O=C(NC1CCN(Cc2ccccc2O)C1)c1ccc(-c2ccccc2)cc1` (stereo unspecified), with 838 nM; and `Cc1nnsc1C(=O)Nc1ccc(-c2cccc(-c3nc4cc(F)ccc4[nH]3)c2)cc1`, with 766 nM; and `CC[C@H]1CN2CC[C@H]1C[C@H]2[C@H](O)c1ccnc2ccc(O)cc12`, with 643 nM.
Then `Cc1ccc2[nH]c(-c3cc(-c4ccc(OCc5ccccc5)cc4)cnc3N)nc2c1`, with 1680 nM; and `CC(C)OC(=O)c1cccnc1SCC(=O)Nc1ccc(C(F)(F)F)cc1Cl`, with 400 nM; and `CC[C@H]1CN2CC[C@@H]1C[C@H]2[C@H](O)c1cc(N2CCC(CO)CC2)nc2ccc(OC)cc12`, with 162 nM.
`Nc1ncc(-c2ccc(F)cc2)cc1-c1nc2ccc(Cl)cc2[nH]1` gave an XC50 of 753 nM.
With `Cc1ccc(CNC(=O)[C@H](Cc2ccccc2)Nc2cc(C)nc(NCCc3ccc(F)cc3)n2)cc1`, the XC50 amounted to 980 nM.
Under `CC(C)(C)c1cc([N+](=O)[O-])cc(C(=O)Nc2ccccc2C(F)(F)F)c1O` stands 652 nM; under `O=C(C=Cc1ccc(Cl)c(Cl)c1)NCCCCCN1CCCC(CCCNC(=O)c2sc3ccccc3c2Cl)C1` (stereo unspecified), 1030 nM.
Under `Cc1ccccc1CNc1noc(-c2sccc2Br)n1` stands 380 nM.
Under `C(=NNc1nc2ccccc2[nH]1)c1ccccc1OCc1ccccc1` stands 256 nM; under `CC(C)N1CCC(NC(=O)N2CCCN(c3ncnc4cc(-c5ccc(Cl)cc5)sc34)CC2)CC1`, 1940 nM.
`CCCN1CCN(CCNC(=O)c2cccc(Nc3nccc(Nc4ccc(Oc5ccccc5)cc4)n3)c2)CC1`: the XC50 was 239 nM.
`CCN(CC)CC(O)c1cc(-c2ccc(C)cc2)nc2c(C)cc(C)cc12` (stereo unspecified) showed an XC50 of 171 nM.
Then `NCc1ccc(-c2cccc(CNC3CCN(Cc4ccccc4)CC3)c2)cc1`, with 672 nM.
Under `CC(C)CNCc1ccc(-c2cccc(CN(CCCN3CCN(C)CC3)C(=O)/C=C/c3ccccc3)c2)cc1` stands 872 nM; under `O=C1COC2(CN1C1CCN(Cc3ccc(O)c(Cl)c3)C1)c1ccccc1-c1ccccc12` (stereo unspecified), 960 nM.
Under `Fc1cccc(Cl)c1-c1nc(NCCC(c2ccccc2)c2ccccc2)no1` stands 546 nM; under `COc1cc(NC(=O)N2CCc3ccc(OCCC4CCCN4C)cc32)cc(C(F)(F)F)c1` (stereo unspecified), 714 nM.
For `COc1cc(NC(=O)c2c(-c3c(F)cccc3Cl)noc2C)c(OC)cc1Cl`, the XC50 is 861 nM.
Then `CCOC(=O)Cc1nc(C(=O)OCC)c(N)[nH]1`, with 647 nM.
Then `CC[C@H](C)CNC(=O)c1cncc(-c2ccc(CN3CCC(N4CCCC4)CC3)cc2)c1`, with 968 nM; and `CCCCN(Cc1cc(Cl)c(OC)c(OC)c1)c1ccc(C(O)(C(F)(F)F)C(F)(F)F)cc1`, with 194 nM.
Under `CCc1nonc1NC(=O)c1oc2c(C)c(C)ccc2c1C` stands 879 nM.
As to `COc1ccc2ncc(F)c(CCN3CC[C@@H](CNCc4cc5c(cn4)OCS5)C3)c2n1`, the XC50 was 1160 nM.
Under `COc1cc(NC(=O)/C=C/c2ccc(-c3ccccc3)cc2)ccc1OCCN(C(C)C)C(C)C` stands 843 nM; under `C[C@H](NC(=O)c1cc(-c2ccc(C(C)(C)C)cc2)no1)C(=O)O.C[C@H](NC(=O)c1conc1-c1ccc(C(C)(C)C)cc1)C(=O)O`, 140 nM.
Regarding `COc1ccccc1N1CCN(CCCCN(C(=O)Nc2cccc(Cl)c2)C(=O)Nc2cccc(Cl)c2)CC1`, the XC50 was found to be 707 nM.

Values taken from ChEMBL document CHEMBL1157539, “Thousands of chemical starting points for antimalarial lead identification” (Nature, 2010).
